Where only a bound is given, the exact number is not on record here.

The target in this experiment is T1, human FASN (Homo sapiens, UniProt P49327).
T1 construct: was purified from SKBR3 cells using procedures modified from those in Jayakumar et al; endogenous in cells; host or cells: SKBR3 human breast cancer cells (ATCC); Endogenous enzyme purified by ammonium sulfate precipitation and a mono Q column
T1 sequence (P49327 whole entry): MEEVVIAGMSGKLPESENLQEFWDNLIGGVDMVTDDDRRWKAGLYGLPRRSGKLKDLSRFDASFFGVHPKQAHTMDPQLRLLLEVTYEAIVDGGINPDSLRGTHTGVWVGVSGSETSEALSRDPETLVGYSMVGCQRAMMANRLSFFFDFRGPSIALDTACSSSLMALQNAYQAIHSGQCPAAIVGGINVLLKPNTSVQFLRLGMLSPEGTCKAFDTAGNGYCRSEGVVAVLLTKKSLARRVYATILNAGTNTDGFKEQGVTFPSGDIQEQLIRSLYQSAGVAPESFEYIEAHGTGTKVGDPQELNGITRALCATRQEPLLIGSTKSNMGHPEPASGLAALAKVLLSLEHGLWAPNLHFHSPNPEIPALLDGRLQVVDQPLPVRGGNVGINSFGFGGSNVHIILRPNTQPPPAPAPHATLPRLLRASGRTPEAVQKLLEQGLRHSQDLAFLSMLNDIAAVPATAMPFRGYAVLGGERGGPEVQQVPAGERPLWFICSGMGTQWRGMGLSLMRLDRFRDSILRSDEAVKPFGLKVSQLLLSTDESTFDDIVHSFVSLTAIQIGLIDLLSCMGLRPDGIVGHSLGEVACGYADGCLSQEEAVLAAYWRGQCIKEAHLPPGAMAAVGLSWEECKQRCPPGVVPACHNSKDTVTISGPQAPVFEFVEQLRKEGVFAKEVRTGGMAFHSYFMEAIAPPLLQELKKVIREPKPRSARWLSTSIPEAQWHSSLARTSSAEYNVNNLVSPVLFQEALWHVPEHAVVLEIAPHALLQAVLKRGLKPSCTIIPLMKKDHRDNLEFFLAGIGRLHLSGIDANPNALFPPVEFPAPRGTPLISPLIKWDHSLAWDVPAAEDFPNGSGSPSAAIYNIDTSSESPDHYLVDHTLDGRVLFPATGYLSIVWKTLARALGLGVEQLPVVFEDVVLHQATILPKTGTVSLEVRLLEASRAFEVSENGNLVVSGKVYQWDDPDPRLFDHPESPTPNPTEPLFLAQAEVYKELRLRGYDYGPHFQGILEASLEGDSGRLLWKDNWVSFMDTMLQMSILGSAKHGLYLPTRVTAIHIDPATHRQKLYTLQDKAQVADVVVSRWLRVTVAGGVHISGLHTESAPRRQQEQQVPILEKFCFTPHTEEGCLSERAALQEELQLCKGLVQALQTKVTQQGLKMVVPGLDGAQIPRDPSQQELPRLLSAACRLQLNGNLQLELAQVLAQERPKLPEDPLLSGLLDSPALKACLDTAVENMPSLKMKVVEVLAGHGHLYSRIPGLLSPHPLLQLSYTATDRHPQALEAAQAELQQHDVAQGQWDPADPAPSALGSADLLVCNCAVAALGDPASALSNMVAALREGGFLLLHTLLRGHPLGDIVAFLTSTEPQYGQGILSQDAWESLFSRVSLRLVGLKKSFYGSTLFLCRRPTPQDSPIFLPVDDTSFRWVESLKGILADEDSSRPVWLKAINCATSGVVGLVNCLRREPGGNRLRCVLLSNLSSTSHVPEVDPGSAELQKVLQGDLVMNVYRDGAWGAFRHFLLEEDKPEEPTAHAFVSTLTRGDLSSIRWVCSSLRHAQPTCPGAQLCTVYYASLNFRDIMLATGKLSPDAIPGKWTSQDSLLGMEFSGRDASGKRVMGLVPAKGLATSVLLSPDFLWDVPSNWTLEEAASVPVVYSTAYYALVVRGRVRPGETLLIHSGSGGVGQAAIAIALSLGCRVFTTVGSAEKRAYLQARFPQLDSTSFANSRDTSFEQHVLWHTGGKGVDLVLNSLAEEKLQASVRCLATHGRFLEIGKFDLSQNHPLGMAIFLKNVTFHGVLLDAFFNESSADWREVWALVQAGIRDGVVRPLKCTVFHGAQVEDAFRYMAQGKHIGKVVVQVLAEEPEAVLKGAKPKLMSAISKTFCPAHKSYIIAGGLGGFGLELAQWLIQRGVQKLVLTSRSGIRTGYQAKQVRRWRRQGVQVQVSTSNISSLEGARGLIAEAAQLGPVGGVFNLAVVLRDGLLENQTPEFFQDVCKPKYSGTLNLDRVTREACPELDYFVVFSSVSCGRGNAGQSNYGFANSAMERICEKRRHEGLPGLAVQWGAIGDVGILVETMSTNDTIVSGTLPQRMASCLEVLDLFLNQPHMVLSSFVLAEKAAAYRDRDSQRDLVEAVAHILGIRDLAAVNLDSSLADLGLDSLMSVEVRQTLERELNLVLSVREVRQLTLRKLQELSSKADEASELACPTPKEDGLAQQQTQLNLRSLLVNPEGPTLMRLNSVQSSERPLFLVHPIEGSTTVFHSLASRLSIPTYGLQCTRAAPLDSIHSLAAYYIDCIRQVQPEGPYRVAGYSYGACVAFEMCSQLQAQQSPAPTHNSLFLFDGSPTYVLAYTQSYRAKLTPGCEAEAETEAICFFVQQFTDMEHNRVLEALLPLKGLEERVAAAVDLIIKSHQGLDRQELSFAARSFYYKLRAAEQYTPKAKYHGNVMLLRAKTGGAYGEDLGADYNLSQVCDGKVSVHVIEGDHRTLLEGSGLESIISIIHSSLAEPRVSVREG
Put plainly: FASN NADPH Consumption Assay. It counts as biochemical. As to conditions: human FASN purified from SKBR3 cells; starred symbols. In outline:
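Native human FASN purified from SKBR3 cells (60 nM final) preincubated 30 min at 37 °C with compound (2.4 nM–40 μM, 4% DMSO) in pH 7.0 phosphate buffer with 5 mM DTT. Reaction started with 0.2 mM NADPH, 50 μM butyryl-CoA, 0.5 mM malonyl-CoA; NADPH consumption followed kinetically by fluorescence (ex 340/em 460 nm); IC50 from logistic fit.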
The term IC50 denotes the point on the concentration scale where inhibition reaches its midpoint. A high value points to weaker potency. With `CCN(C(=O)n1nnn(-c2c(Cl)cccc2Cl)c1=O)C1CCN(C(=O)OC(C)(C)C)CC1`, the IC50 lay in the range of 1 to 10 µM.

The compound `CCN(C(=O)n1nnn(-c2c(Cl)cccc2Cl)c1=O)C1CCN(C(=O)CCC(=O)O)CC1` displayed an IC50 of 1 to 10 µM.

Regarding `CCN(C(=O)n1nnn(-c2c(Cl)cccc2Cl)c1=O)C1CCN(C)CC1`, the IC50 is > 10 µM.

Compound `CS(=O)(=O)NCCCN(C(=O)n1nnn(-c2c(Cl)cccc2Cl)c1=O)C1CCCCC1` returned a half-inhibitory concentration (IC50) of 1 to 10 µM.

`CC(C)(C)OC(=O)NCCN(C(=O)n1nnn(-c2c(Cl)cccc2Cl)c1=O)C1CCCCC1`: the IC50 was > 10 µM.

As to `CCN(C(=O)n1nnn(-c2c(Cl)cccc2Cl)c1=O)C1CCCC(C(=O)N2CCOCC2)C1` (stereo not drawn), the IC50 was in the range of 1 to 10 µM.

For the compound `CCN(C(=O)n1nnn(-c2c(Cl)cccc2Cl)c1=O)C1CCC(C(=O)OCc2ccc(OC)cc2)CC1` (stereo not drawn), the concentration for half-maximal inhibition (IC50) was > 10 µM.

Consider `CCN(C(=O)n1nnn(-c2c(Cl)cccc2Cl)c1=O)C1CCCC(C(=O)OCc2ccccc2)C1` (stereo not drawn), for which the half-inhibitory concentration (IC50) is 1 to 10 µM.

Take `CCN(C(=O)n1nnn(-c2c(Cl)cccc2Cl)c1=O)C1CCCC(C(=O)N2CCN(C)CC2)C1` (stereo not drawn): the half-inhibitory concentration (IC50) fell in the range of 1 to 10 µM.

Regarding `CCN(C(=O)n1nnn(-c2c(Cl)cccc2Cl)c1=O)C1CCC(NC(=O)OC(C)(C)C)CC1` (stereo not drawn), the concentration for half-maximal inhibition (IC50) was > 10 µM.

In the case of `O=C(NCCCN(C(=O)n1nnn(-c2c(Cl)cccc2Cl)c1=O)C1CCCCC1)c1cccnc1`, the IC50 was 1 to 10 µM.

For `CCN(C(=O)n1nnn(-c2c(Cl)cccc2Cl)c1=O)C1CCC(C(=O)O)CC1` (stereo not drawn), the IC50 lay within 1 to 10 µM.

For `CCN(C(=O)n1nnn(-c2c(Cl)cccc2Cl)c1=O)C1CCCC(C(=O)NC)C1` (stereo not drawn), the half-maximal inhibitory concentration (IC50) lay in the range of 1 to 10 µM.

As to `CCN(C(=O)n1nnn(-c2c(Cl)cccc2Cl)c1=O)C1CCC(C(=O)N2CCOCC2)CC1` (stereo not drawn), the half-maximal inhibitory concentration (IC50) is > 10 µM.

In turn, `CC(C)(C)OC(=O)NCCCN(C(=O)n1nnn(-c2c(Cl)cccc2Cl)c1=O)C1CCCCC1` registered a concentration for half-maximal inhibition (IC50) of 1 to 10 µM.

Compound `CCN(C(=O)n1nnn(-c2c(Cl)cccc2Cl)c1=O)C1CCCC(C(=O)NCC(N)=O)C1` (stereo not drawn) showed an IC50 of 1 to 10 µM.

Take `CC(=O)NCCCN(C(=O)n1nnn(-c2c(Cl)cccc2Cl)c1=O)C1CCCCC1`: the IC50 is 1 to 10 µM.

Regarding `CC(C)C[C@@H](NC=O)C(=O)NCCCN(C(=O)n1nnn(-c2c(Cl)cccc2Cl)c1=O)C1CCCCC1`, the 50% inhibitory concentration (IC50) was > 10 µM.

Consider `CCN(C(=O)n1nnn(-c2c(Cl)cccc2Cl)c1=O)C1CCCC(C(=O)O)C1` (stereo not drawn), for which the IC50 fell in the range of 1 to 10 µM.

`CNC(=O)CN(C(=O)n1nnn(-c2c(Cl)cccc2Cl)c1=O)C1CCCCC1` returned a half-maximal inhibitory concentration (IC50) of 1 to 10 µM.

Regarding `CC(=O)NCCN(C(=O)n1nnn(-c2c(Cl)cccc2Cl)c1=O)C1CCCCC1`, the IC50 was > 10 µM.

The compound `CCN(C(=O)n1nnn(-c2c(Cl)cccc2Cl)c1=O)[C@@H]1CCC[C@@H](C(=O)N2CCOCC2)C1` registered an IC50 of 1 to 10 µM.

On to `CCN(C(=O)n1nnn(-c2c(Cl)cccc2Cl)c1=O)C1CCC(C(=O)NC(C(N)=O)c2ccccc2)CC1` (stereo not drawn), for which the IC50 is 1 to 10 µM.

`CCN(C(=O)n1nnn(-c2c(Cl)cccc2Cl)c1=O)C1CCC(C(=O)NC)CC1` (stereo not drawn) showed a half-maximal inhibitory concentration (IC50) of 1 to 10 µM.

In turn, `O=CNCC(=O)NCCCN(C(=O)n1nnn(-c2c(Cl)cccc2Cl)c1=O)C1CCCCC1` returned a half-inhibitory concentration (IC50) of 1 to 10 µM.

As to `O=C(N(Cc1ccco1)C1CCCCC1)n1nnn(-c2c(Cl)cccc2Cl)c1=O`, the IC50 was > 10 µM.

As for `Cc1nonc1NC(=O)CN(C(=O)n1nnn(-c2c(Cl)cccc2Cl)c1=O)C1CCCCC1`, the IC50 was > 10 µM.

With `CCN(C(=O)n1nnn(-c2c(Cl)cccc2Cl)c1=O)C1CCC(C(=O)N2CCN(C)CC2)CC1` (stereo not drawn), the 50% inhibitory concentration (IC50) is > 10 µM.

Regarding `CCNC(=O)NCCCN(C(=O)n1nnn(-c2c(Cl)cccc2Cl)c1=O)C1CCCCC1`, the 50% inhibitory concentration (IC50) lay within 1 to 10 µM.

With `CCN(C(=O)n1nnn(-c2c(Cl)cccc2Cl)c1=O)C1CCC(N(C)C)CC1` (stereo not drawn), the half-inhibitory concentration (IC50) was > 10 µM.

On to `CCN(C(=O)n1nnn(-c2c(C)cccc2C)c1=O)C1CCCCC1`, for which the concentration for half-maximal inhibition (IC50) is > 10 µM.

Regarding `CCN(C(=O)n1nnn(-c2c(Cl)cccc2C(F)(F)F)c1=O)C1CCCCC1`, the IC50 was > 10 µM.

`CCN(C(=O)n1nnn(-c2c(C)cccc2Cl)c1=O)C1CCCCC1` came in with an IC50 of 1 to 10 µM.

For the origin of these results see patent US9346769B2, “Tetrazolones as inhibitors of fatty acid synthase” (Infinity Pharmaceuticals, Inc., priority 2010, dated 2016).
